# Paper PMC11855086, “Synthesis, Antimicrobial Activity, and Tyrosinase Inhibition by Multifunctional 3,4-Dihydroxy-Phenyl Peptidomimetics” (International Journal of Molecular Sciences, 2025)
# Columns and labels:
# [1] = tested on: E. coli R2 (ATCC 39544); test: MIC and MBC, microtiter plate technique; assay type: cell-based; conditions: Escherichia coli; for MBC: ATCC39544; for MIC: ATCC39544, 24 h
# [2] = molecular target: T1, mushroom tyrosinase (mTYR) (Agaricus bisporus, UniProt C7FF04); test: Tyrosinase assay with L-DOPA as substrate (absorbance at 475 nm); assay type: biochemical; conditions: 100 µM compound
# T1 construct: purchased Sigma-Aldrich (Poznan, Poland); host or cells: Agaricus bisporus (extracted natural enzyme)
# T1 sequence (C7FF04 1-392 limits assumed): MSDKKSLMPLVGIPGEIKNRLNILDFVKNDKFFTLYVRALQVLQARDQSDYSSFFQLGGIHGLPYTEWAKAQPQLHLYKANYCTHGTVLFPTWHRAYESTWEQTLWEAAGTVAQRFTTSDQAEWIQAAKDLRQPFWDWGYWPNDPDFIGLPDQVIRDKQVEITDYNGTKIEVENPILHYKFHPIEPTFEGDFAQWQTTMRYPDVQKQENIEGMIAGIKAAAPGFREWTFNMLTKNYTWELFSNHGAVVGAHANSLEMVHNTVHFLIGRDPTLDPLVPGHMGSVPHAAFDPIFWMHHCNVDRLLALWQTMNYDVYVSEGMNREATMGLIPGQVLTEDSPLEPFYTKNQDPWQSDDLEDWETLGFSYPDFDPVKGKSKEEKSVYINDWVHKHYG
# Source text: Tyrosinase (Tyr) extracted from Agaricus bisporus (mushroom tyrosinase, mTYR) is commonly used as a model enzyme for human Tyr due to its high purity, stability, and commercial availability. It is frequently used in the selection of TYR inhibitors. Following established literature protocols, L-tyrosine and L-DOPA, which serve as substrates for monophenol and diphenol oxidation, respectively, were used to assess the tyrosinase inhibitory activity of synthesized target compounds [21].
# Tyrosinase (Tyr) activity was measured using L-DOPA as substrate and phosphate buffer solution (PBS) as blank control, following the method described by Min He et al. (2022) with an ultraviolet spectrophotometer (Carry-300, Agilent Life Sciences and Chemical Analysis, Santa Clara, CA, USA). […] Before the experiment, 2.9 mL of PBS and 0.1 mL of DMSO were used to account for the influence of the background solvent. The inhibitor solution (100 µL), substrate solution (2.8 mL), and Tyr solution (100 µL) were then added to a quartz colorimetric cuvette. After a one-minute mixing period, the absorption spectra of the mixture were continuously recorded at 475 nm using the UV spectrophotometer (Carry-300) for 5 min over a period of every 30 s. The tyrosinase inhibition rate was calculated as follows:Relative enzyme activity (%) = (A1 − A2)/A1 × 100
# A1 = Absorbance of L-DOPA and inhibitor.
# A2 = Absorbance of L-DOPA, inhibitor, and tyrosinase.
# [3] = tested on: A. baumannii (ATCC 17978); test: MIC and MBC, microtiter plate technique; assay type: cell-based; conditions: ATCC17978, Acinetobacter baumannii; for MIC: 24 h, resazurin; for MBC: TTC
# [4] = tested on: S. aureus (ATCC 23235); test: microbe, parasite or virus in culture; assay type: cell-based; conditions: Staphylococcus aureus; for MBC: ATCC23235; for MIC: ATCC23235, 24 h
# [5] = tested on: E. coli K12 (ATCC 25404); test: MIC and MBC, microtiter plate technique; assay type: cell-based; conditions: Escherichia coli; for MBC: ATCC25404; for MIC: ATCC25404, 24 h
# [6] = tested on: E. coli R4 (ATCC 39543); test: MIC and MBC, microtiter plate technique; assay type: cell-based; conditions: Escherichia coli; for MBC: ATCC39543; for MIC: ATCC39543, 24 h
# [7] = tested on: P. aeruginosa (ATCC 15442); test: MIC and MBC, microtiter plate technique; assay type: cell-based; conditions: ATCC15442, Pseudomonas aeruginosa; for MIC: 24 h, resazurin; for MBC: TTC
# [8] = tested on: E. cloacae (ATCC 49141); test: MIC and MBC, microtiter plate technique; assay type: cell-based; conditions: ATCC49141, Enterobacter cloacae; for MIC: 24 h, resazurin; for MBC: TTC
# [9] = tested on: E. coli R3 (ATCC 11775); test: MIC and MBC, microtiter plate technique; assay type: cell-based; conditions: Escherichia coli; for MIC: ATCC11775, 24 h, resazurin; for MBC: ATCC11775, TTC
Structure (SMILES),MBC [1] [µM],MIC [1] [µM],inhibition at 100 µM [2] [%],MIC [3] [µM],MBC [3] [µM],MBC [4] [µM],MIC [4] [µM],MBC [5] [µM],MIC [5] [µM],MBC [6] [µM],MIC [6] [µM],MIC [7] [µM],MBC [7] [µM],MIC [8] [µM],MBC [8] [µM],MIC [9] [µM],MBC [9] [µM]
"COc1ccc(CNC(=O)C(c2ccc(O)c(O)c2)N(Cc2ccc(OC)cc2)C(=O)Cc2ccccc2)cc1 (centres unmarked) [Compound 5b, 2-(3,4-dihydroxyphenyl)-N-(4-methoxybenzyl)-2-(N-(4-methoxybenzyl)-2-phenylacetamido)-acetamide]",1.03,0.98,> 10,0.83,0.9,0.96,0.9,0.61,0.45,2.21,2,0.96,0.99,1,1.05,1.61,1.7
"O=C(NCc1ccccc1)C(c1ccc(O)c(O)c1)N(C(=O)Cc1ccccc1)C1CCCCC1 (centres unmarked) [Compound 5d, N-benzyl-2-(N-cyclohexyl-2-phenylacetamido)-2-(3,4-dihydroxyphenyl)acetamide]",1.07,0.68,> 10,0.74,0.75,0.74,0.68,0.74,0.36,1.29,1.45,0.63,0.74,0.68,0.76,0.92,1.06
COc1ccc(CNC(=O)C(c2ccc(O)c(O)c2)N(C(=O)Cc2ccccc2)C2CCCCC2)cc1 (centres unmarked) [Compound 5e],0.89,0.71,,0.72,0.75,0.69,0.67,0.87,0.3,1.29,1.37,0.67,0.69,0.64,0.7,0.89,1.15
O=C(NCc1ccc(F)cc1)C(c1ccc(O)c(O)c1)N(C(=O)Cc1ccccc1)C1CCCCC1 (centres unmarked) [Compound 5f],0.75,0.65,< 10,0.68,0.71,0.71,0.68,0.61,0.22,1.3,1.28,0.64,0.69,0.68,0.73,0.83,1.18
"CCCCN(C(=O)Cc1ccccc1)C(C(=O)NCc1ccccc1)c1ccc(O)c(O)c1 (centres unmarked) [Compound 5g, N-benzyl-2-(N-butyl-2-phenylacetamido)-2-(3,4-dihydroxyphenyl)acetamide]",1.23,0.94,> 10,0.79,0.82,0.8,0.73,0.71,0.42,1.41,1.5,0.7,0.78,0.72,0.77,1.02,1.23
CCCCN(C(=O)Cc1ccccc1)C(C(=O)NCc1ccc(OC)cc1)c1ccc(O)c(O)c1 (centres unmarked) [Compound 5h],1.07,0.86,< 10,0.73,0.75,0.67,0.67,0.71,0.25,1.42,1.36,0.69,0.72,0.74,0.73,1.07,1.19
CCCCN(C(=O)Cc1ccccc1)C(C(=O)NCc1ccc(F)cc1)c1ccc(O)c(O)c1 (centres unmarked) [Compound 5i],1.16,1.17,> 10,0.99,1.05,1.05,0.99,1.05,0.6,2.51,2.31,1.23,1.26,1.21,1.27,1.92,2.13
"COc1ccc(CN(C(C)=O)C(C(=O)NCc2ccccc2)c2ccc(O)c(O)c2)cc1 (centres unmarked) [Compound 5j, N-benzyl-2-(3,4-dihydroxyphenyl)-2-(N-(4-methoxybenzyl)acetamido)acetamide]",1.19,0.74,,0.8,0.85,0.74,0.78,0.82,0.26,1.47,1.22,0.77,0.82,0.76,0.81,1.08,1.28
"COc1ccc(CNC(=O)C(c2ccc(O)c(O)c2)N(Cc2ccc(OC)cc2)C(C)=O)cc1 (centres unmarked) [Compound 5k, 2-(3,4-dihydroxyphenyl)-N-(4-methoxybenzyl)-2-(N-(4-methoxybenzyl)acetamido)-acetamide]",1.27,1.27,,0.93,1,1.18,1.18,0.79,0.58,2.82,2.55,1.15,1.21,1.14,1.26,2.13,2.58
"COc1ccc(CN(C(C)=O)C(C(=O)NCc2ccc(F)cc2)c2ccc(O)c(O)c2)cc1 (centres unmarked) [Compound 5l, 2-(3,4-dihydroxyphenyl)-N-(4-fluorobenzyl)-2-(N-(4-methoxybenzyl)acetamido)-acetamide]",1.21,1.17,,1,1.03,1.28,1.27,0.77,0.64,2.76,2.61,1.23,1.26,1.23,1.27,1.64,2.62
"CC(=O)N(C1CCCCC1)C(C(=O)NCc1ccccc1)c1ccc(O)c(O)c1 (centres unmarked) [Compound 5m, N-benzyl-2-(N-cyclohexylacetamido)-2-(3,4-dihydroxyphenyl)acetamide]",1.31,0.94,,0.79,0.88,0.78,0.75,0.85,0.35,1.53,0.59,0.8,0.91,0.81,0.89,1.24,1.38
"COc1ccc(CNC(=O)C(c2ccc(O)c(O)c2)N(C(C)=O)C2CCCCC2)cc1 (centres unmarked) [Compound 5n, 2-(N-cyclohexylacetamido)-2-(3,4-dihydroxyphenyl)-N-(4-methoxybenzyl)acetamide]",1.3,0.76,,0.75,0.79,0.83,0.72,0.77,0.39,1.44,1.48,0.78,0.82,0.8,0.8,1.1,1.3
"CC(=O)N(C1CCCCC1)C(C(=O)NCc1ccc(F)cc1)c1ccc(O)c(O)c1 (centres unmarked) [Compound 5o, 2-(N-cyclohexylacetamido)-2-(3,4-dihydroxyphenyl)-N-(4-fluorobenzyl)acetamide]",1.23,0.79,> 10,0.75,0.81,0.81,0.74,0.86,0.3,1.47,1.52,0.73,0.86,0.8,0.84,1.01,1.45
